Laboratory results from patent US6515124B2, “Dehydroamino acids” (Hoffman-La Roche Inc., priority 2000, dated 2003).
pIC50: −log10 of the molar value.

Assays:
[1] = test system: T lymphocyte proliferation (murine spleen cells); assay: Mixed Lymphocyte Reaction (MLR), one-way; assay type: cell-based, mice; conditions: Mus musculus, T-lymphocyte, light or radiation study, 72 h, C57B1/6 spleen cells with irradiated BALB/c spleen cells; tritiated thymidine incorporation, 3 days
From the text: Mixed Lymphocyte Reaction (MLR)
Admixture of murine spleen cells from two different inbred strains of mice induces proliferation of T lymphocytes. The magnitude of T cell proliferation depends on the extent of disparity in the major histocompatibility antigens between the two strains. Splenic T lymphocytes from both strains proliferate due to alloantigen recognition, a process for which the interaction of ICAM-1 on antigen-presenting cells with LFA-1 on lymphocytes is necessary. The ability of antagonists to inhibit T lymphocyte proliferation following recognition of alloantigens was assessed in a one-way MLR, where cells from one strain were irradiated to permit measurement of the proliferative response of cells from the other strain. Spleen cells were washed three times in tissue culture medium (TCM; see below). Fifty microliters of a spleen cell suspension (prepared at 10×10^6 cells/ml in TCM) obtained from C57B1/6 mice were added to an equal number of lethally-irradiated (2000 rads) spleen cells obtained from BALB/c mice in a 96-well U-bottom tissue culture plate (Costar, 3799). One hundred microliters of serial dilutions of antagonists or TCM were added to the spleen cell mixture. The total volume in each well was 200 μL. TCM was RPMI1640 containing 10% heat-inactivated fetal bovine serum, […] L-glutamine, 100 Units/ml each of penicillin and streptomycin and 5×10^−5 M 2-mercaptoethanol. Dilutions of antagonists were prepared in TCM. Plates were incubated in 5% CO2 for 3 days. On the third day, 0.5 μCi of tritiated thymidine (10 μCi/mL) was added to all the wells. Cells were harvested 6 h later on a 96-well plate harvester and the amount of tritiated thymidine incorporated was assessed in a liquid scintillation counter.

[2] = molecular target: T1, LFA-1 binding to immobilized ICAM-1 (Homo sapiens, UniProt P05107+P20701); assay: LFA-1/ICAM-1 Protein-Protein Assay (solid-phase ELISA); conditions: 5dICAM-Ig coated plates; membrane-bound LFA-1 from transfected 293 cells
T1 construct: made in house; host or cells: transfected 293 cells (LFA-1)
T1 sequence (P20701 26-1170): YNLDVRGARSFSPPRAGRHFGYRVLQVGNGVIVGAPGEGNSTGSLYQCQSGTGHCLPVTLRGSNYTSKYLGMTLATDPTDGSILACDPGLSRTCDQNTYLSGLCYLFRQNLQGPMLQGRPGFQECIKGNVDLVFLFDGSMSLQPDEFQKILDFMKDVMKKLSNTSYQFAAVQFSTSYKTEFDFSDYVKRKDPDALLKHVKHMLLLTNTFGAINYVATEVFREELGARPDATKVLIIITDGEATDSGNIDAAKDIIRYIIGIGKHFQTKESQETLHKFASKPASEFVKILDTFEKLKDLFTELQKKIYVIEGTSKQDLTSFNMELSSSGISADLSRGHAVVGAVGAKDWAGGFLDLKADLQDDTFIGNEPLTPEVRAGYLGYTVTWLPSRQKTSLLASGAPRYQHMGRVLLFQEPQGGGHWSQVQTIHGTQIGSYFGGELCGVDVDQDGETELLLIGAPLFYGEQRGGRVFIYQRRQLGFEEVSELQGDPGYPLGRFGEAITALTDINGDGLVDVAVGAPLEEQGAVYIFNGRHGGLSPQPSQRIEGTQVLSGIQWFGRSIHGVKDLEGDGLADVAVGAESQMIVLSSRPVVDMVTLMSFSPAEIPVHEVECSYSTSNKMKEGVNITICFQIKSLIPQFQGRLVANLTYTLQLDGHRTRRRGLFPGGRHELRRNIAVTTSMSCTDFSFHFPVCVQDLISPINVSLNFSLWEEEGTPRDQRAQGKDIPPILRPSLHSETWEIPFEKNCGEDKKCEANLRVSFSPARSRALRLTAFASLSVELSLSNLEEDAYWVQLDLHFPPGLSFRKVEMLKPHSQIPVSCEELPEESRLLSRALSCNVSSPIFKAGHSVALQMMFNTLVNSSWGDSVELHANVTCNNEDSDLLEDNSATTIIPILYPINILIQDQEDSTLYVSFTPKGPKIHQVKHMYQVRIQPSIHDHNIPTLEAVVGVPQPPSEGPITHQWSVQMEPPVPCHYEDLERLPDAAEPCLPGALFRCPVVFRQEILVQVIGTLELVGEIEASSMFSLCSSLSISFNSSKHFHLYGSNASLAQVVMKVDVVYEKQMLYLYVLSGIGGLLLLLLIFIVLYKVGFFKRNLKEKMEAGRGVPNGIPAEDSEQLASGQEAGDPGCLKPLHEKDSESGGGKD
T1 sequence (P05107 23-769): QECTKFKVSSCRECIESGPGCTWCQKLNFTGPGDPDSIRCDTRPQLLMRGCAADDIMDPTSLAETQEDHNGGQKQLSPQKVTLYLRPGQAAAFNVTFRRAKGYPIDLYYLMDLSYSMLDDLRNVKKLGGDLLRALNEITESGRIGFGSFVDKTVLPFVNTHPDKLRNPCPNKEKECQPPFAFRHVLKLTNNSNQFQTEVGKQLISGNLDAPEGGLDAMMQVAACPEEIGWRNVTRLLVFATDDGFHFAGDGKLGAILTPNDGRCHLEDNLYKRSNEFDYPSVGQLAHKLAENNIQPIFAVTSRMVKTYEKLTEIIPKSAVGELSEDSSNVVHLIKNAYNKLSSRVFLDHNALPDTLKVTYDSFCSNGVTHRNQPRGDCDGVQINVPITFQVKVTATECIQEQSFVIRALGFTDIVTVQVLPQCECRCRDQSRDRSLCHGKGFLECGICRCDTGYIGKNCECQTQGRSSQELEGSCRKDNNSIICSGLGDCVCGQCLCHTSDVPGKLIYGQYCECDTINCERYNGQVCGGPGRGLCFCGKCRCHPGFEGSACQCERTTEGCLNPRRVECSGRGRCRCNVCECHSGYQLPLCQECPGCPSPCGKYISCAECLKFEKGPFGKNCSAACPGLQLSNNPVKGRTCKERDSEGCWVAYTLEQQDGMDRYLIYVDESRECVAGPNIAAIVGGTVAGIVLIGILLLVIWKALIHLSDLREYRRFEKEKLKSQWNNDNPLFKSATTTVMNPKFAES
Experimental: LFA-1/ICAM-1 Protein-Protein Assay
LFA-1/ICAM-1 antagonist activity, defined as the ability to block LFA-1 binding to immobilized ICAM-1, was quantitated using a solid-phase ELISA. Typically, fusion protein consisting of the entire extracellular domain of human ICAM-1 and the Fc domain of human IgG (5dICAM-Ig) was coated onto 96-well microtiter plates (0.15 μg in 100 μL PBS) overnight at 4° C. The plates were then blocked with 150 μL of 1% BSA/1 mM MnCl2/0.14 M NaCl/20 mM HEPES, pH 7.2 for 1 h at 37° C. and washed 3 times (150 μL each) with Wash Buffer (50 mM Tris, pH 7.4/100 mM NaCl/1 mM MnCl2/0.05% Tween 20). Stock solutions (100 μM in 100% DMSO) of test compounds were diluted 50 fold with 150 μL of Binding Buffer (0.05% BSA/0.05% Tween 20/1 mM MnCl2/0.14 M NaCl/20 mM HEPES, pH 7.2) plus 10% DMSO. A series of 1:4 dilutions were performed to achieve a concentration range of 0.12 nM-2 μM. Fifty μL per well of each dilution was added to the ICAM-1 coated plates, followed by 50 μL per well of membrane-bound LFA-1 (280 ng/mL in Binding Buffer) derived from transfected 293 cells. The plates were shaken vigorously for 1 min (room temperature) and gently for 2 h (37° C.). After incubation, the plates were washed 3 times (150 μL each) with Wash Buffer. Mouse anti-human integrin β2 monoclonal antibody was added (100 μL/well, 1 μg/ml in Binding Buffer) and allowed to incubate for 1 h (37° C.) with gentle agitation. The plates were then washed 3 times with Wash Buffer. HRP-conjugated goat anti-mouse IgG (100 μL/well, 1:1500 dilution in Binding Buffer) was added to each well, followed by incubation for 1 h (37° C.) and concluded by three washes (150 μL each) with Wash Buffer. TMB solution (100 μL per well) was added for color development (10 min). The reaction was stopped by the addition of 100 μL of 1M H3PO4 to each well. The plates were then read at 450 nm.

Structure (SMILES)	pIC50 [1]	pIC50 [2]
O=C(O)/C(=C/c1cnc2ccccc2c1)NC(=O)c1ccc(C(O)CCc2cccc(O)c2)cc1Cl (racemic) [Example 296, rac.-(Z)-2-[[2-Chloro-4-[1-hydroxy-3-(3-hydroxyphenyl)propan-1-yl]benzoyl]amino]-3-(quinolin-3-yl)propenoic Acid]	5.62	8.81
Cc1nc(C)c(/C=C(\NC(=O)c2ccc(C(O)CCc3cccc(O)c3)cc2Cl)C(=O)O)s1 (racemic) [Example 297, rac.-(Z)-2-[[2-Chloro-4-[1-hydroxy-3-(3-hydroxyphenyl)propan-1-yl]benzoyl]amino]-3-(2,4-dimethylthiazol-5-yl)propenoic Acid]	5.24	8.22
O=C(O)/C(=C/c1cnc2ccccc2c1)NC(=O)c1ccc(C(O)/C=C/c2cccc(O)c2)cc1Cl (racemic) [Example 298, rac.-(Z)-2-[[2-Chloro-4-[(E)-1-hydroxy-3-(3-hydroxyphenyl)prop-2-en-1-yl]benzoyl]amino]-3-(quinolin-3-yl)propenoic Acid]	5.21	8.37
Cc1nc(C)c(/C=C(\NC(=O)c2ccc(C(O)/C=C/c3cccc(O)c3)cc2Cl)C(=O)O)s1 (racemic) [Example 299, rac.-(Z)-2-[[2-Chloro-4-[(E)-1-hydroxy-3-(3-hydroxyphenyl)prop-2-en-1-yl]benzoyl]amino]-3-(2,4-dimethylthiazol-5-yl)propenoic Acid]	5.00	7.88
O=C(O)/C(=C/C1CCCNC1)NC(=O)c1ccc(C(=O)NCc2cccc(O)c2)cc1Br (racemic) [Example 318]		6.77
O=C(O)/C(=C/CC1CCCCN1)NC(=O)c1ccc(C(=O)NCc2cccc(O)c2)cc1Br (racemic) [Example 320]		6.86
Cc1nc(/C=C(\NC(=O)c2ccc(C(=O)NCc3cccc(O)c3)cc2Br)C(=O)O)cs1 [Example 235, (Z)-2-[[2-Bromo-4-[[(3-hydroxybenzyl)amino]carbonyl]benzoyl]amino]-3-(2-methylthiazol-4-yl)propenoic Acid]	4.87	7.37
Cc1cc(C(=O)N[C@H](C)c2cccc3ccccc23)cc(C)c1C(=O)N/C(=C\c1ncc[nH]1)C(=O)O [Example 236]	5.14	7.59
Cc1cc(C(=O)N[C@H](C)c2cccc3ccccc23)cc(C)c1C(=O)N/C(=C\c1ccccc1)C(=O)O [Example 237]	4.70	7.57
Cc1cc(C(=O)N[C@H](C)c2cccc3ccccc23)cc(C)c1C(=O)N/C(=C\c1ccncc1)C(=O)O [Example 238]		7.78
Cc1cc(C(=O)N[C@H](C)c2cccc3ccccc23)cc(C)c1C(=O)N/C(=C\c1ccc2[nH]nnc2c1)C(=O)O [Example 239]		8.67
Cc1cc(C(=O)N[C@H](C)c2cccc3ccccc23)cc(C)c1C(=O)N/C(=C\c1[nH]cnc1C)C(=O)O [Example 240]	5.46	8.32
Cc1cc(C(=O)N[C@H](C)c2cccc3ccccc23)cc(C)c1C(=O)N/C(=C\c1cnc2ccccc2c1)C(=O)O [Example 241]	5.59	8.69
C[C@@H](NC(=O)c1cc(Cl)c(C(=O)N/C(=C\c2ccc3[nH]nnc3c2)C(=O)O)c(Cl)c1)c1cccc2ccccc12 [Example 242]		7.66
O=C(O)/C(=C/c1ccoc1)NC(=O)c1ccc(C(=O)NCc2cccc(O)c2)cc1Br [Example 243]		7.88
Cc1nc(C)c(/C=C(\NC(=O)c2ccc(C(=O)NCc3cccc(O)c3)cc2Cl)C(=O)O)s1 [Example 244]	5.52	8.71
O=C(O)/C(=C/c1ccc2ncsc2c1)NC(=O)c1ccc(C(=O)NCc2cccc(O)c2)cc1Cl [Example 245]	5.86	9.03
O=C(O)/C(=C/c1ccc2nonc2c1)NC(=O)c1ccc(C(=O)NCc2cccc(O)c2)cc1Cl [Example 246]	5.11	8.62
Cc1cc(C(=O)NCc2cc(F)cc(F)c2)cc(C)c1C(=O)N/C(=C\c1[nH]cnc1C)C(=O)O [Example 250, (Z)-2-[[4-[[(3,5-Difluorobenzyl)amino]carbonyl]-2,6-dimethylbenzoyl]amino]-3-(4-methyl-1H-imidazol-5-yl)propenoic Acid]		7.43

Structure (SMILES)	pIC50 [1]	pIC50 [2]
CC(C)c1csc(/C=C(\NC(=O)c2ccc(C(=O)NCc3cccc(O)c3)cc2Br)C(=O)O)n1 [Example 256]		6.55
O=C(O)/C(=C/c1nc(C(F)(F)F)cs1)NC(=O)c1ccc(C(=O)NCc2cccc(O)c2)cc1Br [Example 257]		7.00
Cc1nc(C(C)C)c(/C=C(\NC(=O)c2ccc(C(=O)NCc3cccc(O)c3)cc2Br)C(=O)O)s1 [Example 259]		8.09
O=C(O)/C(=C/c1cnc(-c2cccs2)s1)NC(=O)c1ccc(C(=O)NCc2cccc(O)c2)cc1Br [Example 262]		6.91
O=C(O)/C(=C/c1cnnc2ccccc12)NC(=O)c1ccc(C(=O)NCc2cccc(O)c2)cc1Br [Example 265]		6.91
O=C(O)/C(=C/c1cccs1)NC(=O)c1ccc(C(=O)NCc2cccc(O)c2)cc1Br [Example 271]		7.48
O=C(O)/C(=C/c1ccc2ccccc2n1)NC(=O)c1ccc(C(=O)NCc2cccc(O)c2)cc1Br [Example 275]		7.37
O=C(O)/C(=C/c1nc2ccccc2s1)NC(=O)c1ccc(C(=O)NCc2cccc(O)c2)cc1Br [Example 276]		7.30
COc1ncc(/C=C(\NC(=O)c2ccc(C(=O)NCc3cccc(O)c3)cc2Br)C(=O)O)c(OC)n1 [Example 284]		7.90
Cn1c(/C=C(\NC(=O)c2ccc(C(=O)NCc3cccc(O)c3)cc2Br)C(=O)O)nc2ccccc21 [Example 288]		6.70
CC/C=C(\NC(=O)c1ccc(C(=O)NCc2cccc(O)c2)cc1Br)C(=O)O [Example 289]		7.39
CCc1nc(C(C)C)c(/C=C(\NC(=O)c2ccc(C(=O)NCc3cccc(O)c3)cc2Cl)C(=O)O)s1 [Example 303, (Z)-2-[[2-Chloro-4-[[3-(3-hydroxybenzyl)amino]carbonyl]benzoyl]amino]-3-[2-ethyl-4-(1-methylethyl)thiazol-5-yl]propenoic Acid]		6.72
O=C(O)/C(=C/c1cccs1)NC(=O)c1ccc(C(=O)NCc2cccc3[nH]ccc23)cc1Cl [Example 308]		7.25
O=C(O)/C(=C/c1ccccn1)NC(=O)c1ccc(C(=O)NCc2cccc3[nH]ccc23)cc1Cl [Example 310]		7.25
O=C(O)/C(=C/c1ccsc1)NC(=O)c1ccc(C(=O)NCc2cccc(O)c2)cc1Br [Example 313]		8.09
O=C(O)/C(=C/C1CCNCC1)NC(=O)c1ccc(C(=O)NCc2cccc(O)c2)cc1Br [Example 319]		7.14
O=C(O)/C(=C/c1cnc2ccccc2c1)NC(=O)c1ccc(C(=O)NCc2ccc3cc[nH]c3c2)cc1Cl [Example 324, (Z)-2-[[2-Chloro-4-[[[(1N-indol-6-yl)methyl]amino]carbonyl]benzoyl]amino]-3-(quinolin-3-yl)propenoic Acid]		7.29
Cc1cc(C(=O)NCc2cccc(O)c2)cc(C)c1C(=O)N/C(=C\c1ccc2[nH]nnc2c1)C(=O)O [Example 326, (Z)-3-(1H-Benzotriazol-5-yl)-2-[[4-[[(3-hydroxybenzyl)amino]carbonyl]-2,6-dimethylbenzoyl]amino]propenoic Acid]		8.95
C[C@@H](NC(=O)c1ccc(C(=O)N/C(=C\c2cccs2)C(=O)O)c(Cl)c1)c1cccc2ccccc12 [Example 327]		7.69
